± gives the standard deviation of the averaged measurements.
Key:
Conditions in all cases: treatment time: 3 days
[1] = tested on: UT-SCC-40; experiment: maximal % inhibition of viability relative to DMSO; higher = stronger effect
Protocol: (§1)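 HNSCC cell lines (500 cells/well, 384-well) were cultured on plastic, on top of (2D) or embedded (3D) in Matrigel or human leiomyoma matrix Myogel (500 ug/mL; Myogel 3D mixed with rat collagen I). Cells were treated for 3 days with 5 ten-fold concentrations of each drug, and viability was read by CellTiter-Glo. Viability was normalised to DMSO and benzethonium chloride controls and fitted with the FIMM DSRT pipeline to give IC50 (nM), maximal % inhibition and DSS. Suffixes _1/_2/_3 are replicates. Only inhibition-mode (IC50) fits are kept.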

[2] = tested on: UT-SCC-42B; experiment: as above
Protocol: as §1

[3] = tested on: UT-SCC-24B; experiment: as above
Protocol: as §1

[4] = tested on: UT-SCC-14; experiment: as above
Protocol: as §1

[5] = tested on: UT-SCC-8; experiment: as above
Protocol: as §1

[6] = tested on: UT-SCC-73; experiment: as above
Protocol: as §1

[7] = tested on: UT-SCC-42A; experiment: as above
Protocol: as §1

[8] = tested on: UT-SCC-44; experiment: as above
Protocol: as §1

[9] = tested on: UT-SCC-81; experiment: as above
Protocol: as §1

[10] = tested on: UT-SCC-106A; experiment: as above
Protocol: as §1

[11] = tested on: UT-SCC-28; experiment: as above
Protocol: as §1

[12] = tested on: UT-SCC-24B; experiment: relative IC50 (midpoint of the fitted curve; maximal inhibition may be below 50%); higher = less potent
Method in brief: (§2)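 Viability was read with CellTiter-Glo 2.0 luminescence and scaled against vehicle (0.1% DMSO) and cell-killing control wells. The assay used HPV-negative HNSCC cell lines at 500 cells/well in 384-well plates, grown on plastic, on Matrigel or Myogel coatings (500 µg/mL), or embedded in Matrigel or Myogel plus rat collagen I, and treated for 3 days at five 10-fold concentrations. IC50, maximal inhibition and drug sensitivity score were derived from percent-inhibition dose–response curves fitted in the FIMM pipeline.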

[13] = tested on: UT-SCC-14; experiment: as above
Method in brief: as §2

[14] = tested on: UT-SCC-8; experiment: as above
Method in brief: as §2

[15] = tested on: UT-SCC-42A; experiment: as above
Method in brief: as §2

[16] = tested on: UT-SCC-81; experiment: as above
Method in brief: as §2

[17] = tested on: UT-SCC-28; experiment: as above
Method in brief: as §2

[18] = culture condition: embedded in Matrigel
[19] = culture condition: embedded in Myogel + collagen I
[20] = culture condition: on top of Matrigel
[21] = culture condition: on top of Myogel
[22] = culture condition: plastic 2D (no matrix)

## O=C(NC[C@H](O)CO)c1ccncc1Nc1ccc(I)cc1F [Pimasertib]
[1]; [18]
  maximal % inhibition of viability: 80.6 ± 0.3%
[1]; [19]
  maximal % inhibition of viability: 72.8 ± 3.5%
[1]; [20]
  maximal % inhibition of viability: 77.77 ± 0.35%
[1]; [21]
  maximal % inhibition of viability: 64.6 ± 2.5%
[1]; [22]
  maximal % inhibition of viability: 64.5 ± 4.9%
[2]; [18]
  maximal % inhibition of viability: 70.2 ± 1.9%
[2]; [20]
  maximal % inhibition of viability: 59.9 ± 2.8%
[2]; [21]
  maximal % inhibition of viability: 53 ± 2.7%
[2]; [22]
  maximal % inhibition of viability: 49.2 ± 3.8%
[3]; [18]
  maximal % inhibition of viability: 72.7 ± 1.5%
[3]; [19]
  maximal % inhibition of viability: 79.1 ± 8.2%
[3]; [20]
  maximal % inhibition of viability: 75.8 ± 2.7%
[3]; [21]
  maximal % inhibition of viability: 67.9 ± 2.7%
[3]; [22]
  maximal % inhibition of viability: 88.9 ± 1.2%
[4]; [18]
  maximal % inhibition of viability: 64.8 ± 6.5%
[4]; [19]
  maximal % inhibition of viability: 59.6 ± 4.5%
[4]; [20]
  maximal % inhibition of viability: 59.6 ± 6.8%
[4]; [21]
  maximal % inhibition of viability: 54.7 ± 9.3%
[4]; [22]
  maximal % inhibition of viability: 57.1 ± 10%
[5]; [18]
  maximal % inhibition of viability: 93.8 ± 1.2%
[5]; [19]
  maximal % inhibition of viability: 82.5 ± 1.6%
[5]; [20]
  maximal % inhibition of viability: 90.4 ± 0.76%
[5]; [21]
  maximal % inhibition of viability: 85.8 ± 2.3%
[5]; [22]
  maximal % inhibition of viability: 90.3 ± 2.2%
[6]; [18]
  maximal % inhibition of viability: 86.2 ± 1.2%
[6]; [19]
  maximal % inhibition of viability: 78.7 ± 13%
[6]; [20]
  maximal % inhibition of viability: 81.93 ± 0.55%
[6]; [21]
  maximal % inhibition of viability: 76.4 ± 1.3%
[6]; [22]
  maximal % inhibition of viability: 79.6 ± 1.4%
[7]; [18]
  maximal % inhibition of viability: 61.3 ± 7.5%
[7]; [19]
  maximal % inhibition of viability: 51.3 ± 6.6%
[7]; [20]
  maximal % inhibition of viability: 63.2 ± 0.95%
[7]; [21]
  maximal % inhibition of viability: 55.7 ± 5.7%
[7]; [22]
  maximal % inhibition of viability: 60.4 ± 7.4%
[8]; [18]
  maximal % inhibition of viability: 93.77 ± 0.93%
[8]; [19]
  maximal % inhibition of viability: 66.6 ± 8.2%
[8]; [20]
  maximal % inhibition of viability: 81.8 ± 2.8%
[8]; [21]
  maximal % inhibition of viability: 66.3 ± 3.5%
[8]; [22]
  maximal % inhibition of viability: 69.6 ± 7.2%
[9]; [18]
  maximal % inhibition of viability: 88.7 ± 1.7%
[9]; [19]
  maximal % inhibition of viability: 68.2 ± 0.36%
[9]; [20]
  maximal % inhibition of viability: 86.1 ± 0.46%
[9]; [21]
  maximal % inhibition of viability: 71.2 ± 2.8%
[9]; [22]
  maximal % inhibition of viability: 78.6 ± 1.5%
[10]; [18]
  maximal % inhibition of viability: 53.5 ± 4.2%
[10]; [19]
  maximal % inhibition of viability: 43.4 ± 1.8%
[10]; [20]
  maximal % inhibition of viability: 63.2 ± 0.68%
[10]; [21]
  maximal % inhibition of viability: 54.1 ± 3.3%
[10]; [22]
  maximal % inhibition of viability: 70 ± 1.2%
[11]; [18]
  maximal % inhibition of viability: 54.1 ± 6.8%
[11]; [19]
  maximal % inhibition of viability: 51 ± 6.3%
[11]; [20]
  maximal % inhibition of viability: 54.8 ± 1.5%
[11]; [22]
  maximal % inhibition of viability: 32.7 ± 3.9%
[12]; [18]
  relative IC50: 150 nM
[12]; [19]
  relative IC50: 212 nM
[12]; [20]
  relative IC50: 184 nM
[12]; [21]
  relative IC50: 653 nM
[12]; [22]
  relative IC50: 102 nM
[13]; [20]
  relative IC50: 250 nM
[13]; [21]
  relative IC50: 416 nM
[13]; [22]
  relative IC50: 637 nM
[14]; [18]
  relative IC50: 122 nM
[14]; [19]
  relative IC50: 773 nM
[14]; [20]
  relative IC50: 159 nM
[14]; [21]
  relative IC50: 163 nM
[14]; [22]
  relative IC50: 228 nM
[15]; [18]
  relative IC50: 14.2 nM
[15]; [19]
  relative IC50: 183 nM
[15]; [20]
  relative IC50: 17.6 nM
[15]; [22]
  relative IC50: 40.8 nM
[16]; [18]
  relative IC50: 14.5 nM
[16]; [20]
  relative IC50: 43.5 nM
[16]; [21]
  relative IC50: 532 nM
[16]; [22]
  relative IC50: 223 nM
[17]; [18]
  relative IC50: 76.8 nM
[17]; [20]
  relative IC50: 98.8 nM
